Test results from US10294234B2, “HIV inhibitor compounds” (priority 2017, dated 2019).
Read-outs that look alike come from different tables or passages of the source.

Columns and labels:
[1] = Protocol: Liver Microsomal Stability Protocol
Test compounds and one control compound (verapamil) were tested in 3 different species in duplicate sets.
Test compound concentration: 1 uM; Protein concentration: 0.5 mg/mL (for dog, rat, and human liver microsomes); Cofactor: NADPH-Regenerating system (NRS) solution; Time-points: 2, 12, 25, 45, and 65 minutes.
Reaction composition (in each incubation well) contains:
After plates were vortexed, they were centrifuged for 30 minutes to remove proteins. About 100 μL supernatant was removed to a new plate and diluted with 150 μL water. About 20 μL of the mixture was injected into LC/MS/MS system to monitor the compound's response. In vitro measured t1/2 was used to calculate Clint values.

[2] = tested on: HIV-1 (IIIB) in MT-4 cells; assay: MT-4 HIV assay; type: cell-based; conditions: HIV-1 (IIIB), MT-4 cells, 5 days, Cell Titer Glo, read-out: EC50
Procedure, shortened: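 Antiviral activity was read by Cell Titer Glo after a 5-day, 37 °C culture of MT-4 cells pre-infected with a 1:250 dilution of HIV-1 (IIIB). Compounds were tested as threefold dilution series in complete RPMI. Controls were no drug, mock infection and 5 uM AZT.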

[3] = Human immunodeficiency virus 1, MT4, 120 h

| Molecule | Human Pred Cl. ([1]; human, microsomes) [L/H/kg] | Rat. Pred. Cl. ([1]; rat, microsomes) [L/H/kg] | EC50 [2, 3] [nM] | Human Pred Cl. ([1]; human liver microsomes 0.5 mg/mL, 1 uM compound, NADPH) [L/H/kg] | Rat. Pred. Cl. ([1]; rat liver microsomes 0.5 mg/mL, 1 uM compound, NADPH) [L/H/kg] | EC50 [2] [nM] |
| --- | --- | --- | --- | --- | --- | --- |
| COC(=O)N[C@H](C(=O)NN(Cc1c(F)cc(-c2ccn(CC(F)F)n2)cc1F)C[C@H](O)[C@H](Cc1ccc(C#Cc2ccc(N3CC4CCC(C3)N4C3COC3)nc2)cc1)NC(=O)[C@@H](NC(=O)OC)C(C)(C)C(F)(F)F)C(C)(C)C [Example 6, methyl ((5S,8S,9S,14S)-11-(4-(1-(2,2-difluoroethyl)-1H-pyrazol-3-yl)-2,6-difluorobenzyl)-9-hydroxy-15,15-dimethyl-8-(4-((6-(8-(oxetan-3-yl)-3,8-diazabicyclo[3.2.1]octan-3-yl)pyridin-3-yl)ethynyl)benzyl)-3,6,13-trioxo-5-(1,1,1-trifluoro-2-methylpropan-2-yl)-2-oxa-4,7,11,12-tetraazahexadecan-14-yl)carbamate] | <0.11 | 0.22 | 3.56 | – | – | – |
| COC(=O)N[C@H](C(=O)NN(Cc1c(F)cc(-c2ccn(CC(F)F)n2)cc1F)C[C@H](O)[C@H](Cc1ccc(C#Cc2cnc(N3CC4CCC(C3)N4C3COC3)nc2)cc1)NC(=O)[C@@H](NC(=O)OC)C(C)(C)C(F)(F)F)C(C)(C)C [Example 7, methyl ((5S,8S,9S,14S)-11-(4-(1-(2,2-difluoroethyl)-1H-pyrazol-3-yl)-2,6-difluorobenzyl)-9-hydroxy-15,15-dimethyl-8-(4-((2-(8-(oxetan-3-yl)-3,8-diazabicyclo[3.2.1]octan-3-yl)pyrimidin-5-yl)ethynyl)benzyl)-3,6,13-trioxo-5-(1,1,1-trifluoro-2-methylpropan-2-yl)-2-oxa-4,7,11,12-tetraazahexadecan-14-yl)carbamate] | <0.11 | 0.21 | 3.61 | – | – | – |
| COC(=O)N[C@H](C(=O)N[C@@H](Cc1ccc(C#Cc2ccc(N3CC4CCC(C3)N4C3COC3)nc2)cc1)[C@@H](O)CN(Cc1c(F)cc(-c2nnc(C)o2)cc1F)NC(=O)[C@@H](NC(=O)OC)C(C)(C)C(F)(F)F)C(C)(C)C(F)(F)F [Example 11, Methyl ((5S,8S,9S,14S)-11-(2,6-difluoro-4-(5-methyl-1,3,4-oxadiazol-2-yl)benzyl)-16,16,16-trifluoro-9-hydroxy-15,15-dimethyl-8-(4-((6-(8-(oxetan-3-yl)-3,8-diazabicyclo[3.2.1]octan-3-yl)pyridin-3-yl)ethynyl)benzyl)-3,6,13-trioxo-5-(1,1,1-trifluoro-2-methylpropan-2-yl)-2-oxa-4,7,11,12-tetraazahexadecan-14-yl)carbamate] | 0.18 | 0.18 | 3.72 | – | – | – |
| COC(=O)N[C@H](C(=O)N[C@@H](Cc1ccc(C#Cc2ccc(N3CC4CCC(C3)N4C3COC3)nc2)cc1)[C@@H](O)CN(Cc1c(F)cc(-c2ccn([C@H]3CCOC3)n2)cc1F)NC(=O)[C@@H](NC(=O)OC)C(C)(C)C(F)(F)F)C(C)(C)C(F)(F)F [Example 14, Methyl ((5S,8S,9S,14S)-11-(2,6-difluoro-4-(1-((S)-tetrahydrofuran-3-yl)-1H-pyrazol-3-yl)benzyl)-16,16,16-trifluoro-9-hydroxy-15,15-dimethyl-8-(4-((6-(8-(oxetan-3-yl)-3,8-diazabicyclo[3.2.1]octan-3-yl)pyridin-3-yl)ethynyl)benzyl)-3,6,13-trioxo-5-(1,1,1-trifluoro-2-methylpropan-2-yl)-2-oxa-4,7,11,12-tetraazahexadecan-14-yl)carbamate] | 0.66 | 1.13 | 4.39 | – | – | – |
| COC(=O)N[C@H](C(=O)N[C@@H](Cc1ccc(C#Cc2ccc(N3CC4CCC(C3)N4C3COC3)nc2)cc1)[C@@H](O)CN(Cc1c(F)cc(-c2ccn(CC(C)(C)O)n2)cc1F)NC(=O)[C@@H](NC(=O)OC)C(C)(C)C(F)(F)F)C(C)(C)C(F)(F)F [Example 16, Methyl ((5S,8S,9S,14S)-11-(2,6-difluoro-4-(1-(2-hydroxy-2-methylpropyl)-1H-pyrazol-3-yl)benzyl)-16,16,16-trifluoro-9-hydroxy-15,15-dimethyl-8-(4-((6-(8-(oxetan-3-yl)-3,8-diazabicyclo[3.2.1]octan-3-yl)pyridin-3-yl)ethynyl)benzyl)-3,6,13-trioxo-5-(1,1,1-trifluoro-2-methylpropan-2-yl)-2-oxa-4,7,11,12-tetraazahexadecan-14-yl)carbamate] | <0.11 | 0.45 | 4.64 | – | – | – |
| COC(=O)N[C@H](C(=O)N[C@@H](Cc1ccc(C#Cc2ccc(N3CC4CCC(C3)N4C(=O)[C@@H]3CCCO3)nc2)cc1)[C@@H](O)CN(Cc1c(F)cc(-c2cnn(C(F)F)c2)cc1F)NC(=O)[C@@H](NC(=O)OC)C(C)(C)C(F)(F)F)C(C)(C)C(F)(F)F [Example 18, Methyl ((5S,8S,9S,14S)-11-(4-(1-(difluoromethyl)-1H-pyrazol-4-yl)-2,6-difluorobenzyl)-16,16,16-trifluoro-9-hydroxy-15,15-dimethyl-3,6,13-trioxo-8-(4-((6-(8-((S)-tetrahydrofuran-2-carbonyl)-3,8-diazabicyclo[3.2.1]octan-3-yl)pyridin-3-yl)ethynyl)benzyl)-5-(1,1,1-trifluoro-2-methylpropan-2-yl)-2-oxa-4,7,11,12-tetraazahexadecan-14-yl)carbamate] | 0.13 | 1.03 | 5 | – | – | – |
| COC(=O)N[C@H](C(=O)N[C@@H](Cc1ccc(C#Cc2ccc(N3C4CCC3CN(C3COC3)C4)nc2)cc1)[C@@H](O)CN(Cc1c(F)cc(-c2cnn(C(F)F)c2)cc1F)NC(=O)[C@@H](NC(=O)OC)C(C)(C)C(F)(F)F)C(C)(C)C(F)(F)F [Example 19, methyl ((5S,8S,9S,14S)-11-(4-(1-(difluoromethyl)-1H-pyrazol-4-yl)-2,6-difluorobenzyl)-16,16,16-trifluoro-9-hydroxy-15,15-dimethyl-8-(4-((6-(3-(oxetan-3-yl)-3,8-diazabicyclo[3.2.1]octan-8-yl)pyridin-3-yl)ethynyl)benzyl)-3,6,13-trioxo-5-(1,1,1-trifluoro-2-methylpropan-2-yl)-2-oxa-4,7,11,12-tetraazahexadecan-14-yl)carbamate] | <0.11 | 0.29 | 8.43 | – | – | – |
| COC(=O)N[C@H](C(=O)N[C@@H](Cc1ccc(C#Cc2cnc(N3C[C@H]4C[C@@H]3CN4C3COC3)nc2)cc1)[C@@H](O)CN(Cc1c(F)cc(-c2ccn(CC(F)F)n2)cc1F)NC(=O)[C@@H](NC(=O)OC)C(C)(C)C(F)(F)F)C(C)(C)C(F)(F)F [Example 25, Methyl ((5S,8S,9S,14S)-11-(4-(1-(2,2-difluoroethyl)-1H-pyrazol-3-yl)-2,6-difluorobenzyl)-16,16,16-trifluoro-9-hydroxy-15,15-dimethyl-8-(4-((2-((1R,4R)-5-(oxetan-3-yl)-2,5-diazabicyclo[2.2.1]heptan-2-yl)pyrimidin-5-yl)ethynyl)benzyl)-3,6,13-trioxo-5-(1,1,1-trifluoro-2-methylpropan-2-yl)-2-oxa-4,7,11,12-tetraazahexadecan-14-yl)carbamate] | – | – | 3.19 | 0.16 | 1.41 | – |
| COC(=O)N[C@H](C(=O)NN(Cc1ccc(-c2cnn(C(F)F)c2)cc1)C[C@H](O)[C@H](Cc1ccc(C#Cc2ccc(N3CC4CCC(C3)N4C3COC3)nc2)cc1)NC(=O)[C@@H](NC(=O)OC)C(C)(C)C(F)(F)F)C(C)(C)C [Example 243, methyl ((5S,8S,9S,14S)-11-(4-(1-(difluoromethyl)-1H-pyrazol-4-yl)benzyl)-9-hydroxy-15,15-dimethyl-8-(4-((6-(8-(oxetan-3-yl)-3,8-diazabicyclo[3.2.1]octan-3-yl)pyridin-3-yl)ethynyl)benzyl)-3,6,13-trioxo-5-(1,1,1-trifluoro-2-methylpropan-2-yl)-2-oxa-4,7,11,12-tetraazahexadecan-14-yl)carbamat] | – | – | 5.32 | – | – | – |
| COC(=O)N[C@H](C(=O)N[C@@H](Cc1ccc(C#Cc2ccc(N3CC4CCC(C3)N4C3COC3)nc2)cc1)[C@@H](O)CN(Cc1ccc(-c2ccccn2)cc1F)NC(=O)[C@@H](NC(=O)OC)C(C)(C)C(F)(F)F)C(C)(C)C(F)(F)F [Example 245, Methyl ((5S,8S,9S,14S)-16,16,16-trifluoro-11-(2-fluoro-4-(pyridin-2-yl)benzyl)-9-hydroxy-15,15-dimethyl-8-(4-((6-(8-(oxetan-3-yl)-3,8-diazabicyclo[3.2.1]octan-3-yl)pyridin-3-yl)ethynyl)benzyl)-3,6,13-trioxo-5-(1,1,1-trifluoro-2-methylpropan-2-yl)-2-oxa-4,7,11,12-tetraazahexadecan-14-yl)carbamate] | – | – | 3.59 | – | – | – |
| methyl ((5S,8S,9S,14S)-11-(2-chloro-6-fluoro-(pyridin-2-yl)benzyl)-16-fluoro-5-(1-fluoro-2-methylpropan-2-yl)-9-hydroxy-15,15-dimethyl-3,6,13-trioxo-8-(4-((6-(8-(2,2,2-trifluoroethyl)-3,8-diazabicyclo[3.2.1]octan-3-yl)pyridin-3-yl)ethynyl)benzyl)-2-oxa-4,7,11,12-tetraazahexadecan-14-yl)carbamate [Example 244] | – | – | – | – | – | 19.5 |
